Where two headings read alike, the source gives them in different places.
What was measured:
[1] = system: rat mesenteric vascular bed; conditions: cited from earlier work; for inhibitory action on noradrenaline responses with intact PG synthesis versus PG synthesis blocked: PG synthesis blocked by indomethacin or by aspirin
Platelets (human) = experiment: Conversion of 14C-labelled DGLA and AA to PGEs and TXBs in human platelets; format: cell-based; conditions: Platelet, 5 μg/ml drug, percentage of control incubation with drug vehicle alone
Method: The method is given in detail later herein but briefly human platelets are incubated with radioactive DGLA or arachidonic acid. The PGs produced during incubation are extracted by conventional means and separated by thin layer chromatography, and the amount of radioactivity appearing in each PG or related substance is counted. PGE 1, PGF la and thromboxane Bl from DGLA, and PGE 2, PFG 2a and thromboxane B2 from AA are estimated.
The conversions of the precursors to the respective PGEs and TXBs in platelets and to the PGEs in kidney slices were investigated. […] A 10% variation is a reliable indication of real change.
The chloroform/methanol extract was then reduced in volume to 1 ml under dry prepurified nitrogen. Thin layer chromatography was carried out on 500 µg precoated, prescored silica gel G Uniplates (Analtech). Plates were activated by heating to 100°C for 1 hour immediately prior to use. The solvent system was chloroform:methanol: acetic acid:water (90:8:1:0.8). Reference compounds (PG's El and Fla, and thromboxane Bl) were run at the same time and visualized by phosphomolybdic acid spray followed by brief heating. […] Each elution was then evaporated to dryness and counted by liquid scintillation (Beckman 100 LS counter). […]

Kidney slices (rat) = experiment: Conversion of 14C-labelled DGLA and AA to PGEs in rat kidney slices; format: cell-based; conditions: 5 μg/ml drug, percentage of control incubation with drug vehicle alone, 10% variation is a real change
Method: The conversions of the precursors to the respective PGEs and TXBs in platelets and to the PGEs in kidney slices were investigated. The results are shown in the following tables and are expressed as percentages of the results obtained during control incubations when drug vehicle alone was added. A 10% variation is a reliable indication of real change.
The detailed technique with platelets is given below by way of example. That with kidney slices was essentially similar.
(1-^14C) arachidonic acid and (1-^14C) dihomo-y-linolenic acid was used, diluted with hexane to specific activities of about 2 or 5 µCi/µmol. One day expired (2 days old) human platelets were obtained and used within 48 hours of expiration. One unit was centrifuged at lOOOg for 15 minutes and the supernatant drawn off. The platelet pellet was resuspended in Tris-NaCl-EDTA buffer, made up of 0.15 M NaCl, 0.15 M Tris HC1 at pH 7.4 and 0.077 M NaEDTA (90:8:2 v/v/v). The platelets were recentrifuged, the supernatant removed and the pellet resuspended in Krebs-Henseleit buffer (without calcium) at oH 7.4. The washed platelet suspension contained about 1-2% red blood cells. All glassware used in the preparation of the platelets was siliconized.
Four equal sized 1 ml aliquots of the platelet suspension, containing 10^9 platelets/ml were incubated with e.g. 0.5 µCi 14 C-DGLA for five minutes. At the beginning of the incubation the drug under test was added to the suspensions. The reaction was stopped after five minutes by addition of 1/10 volume of 10% formic acid. The suspension was then extracted three times with ethyl acetate and the fractions pooled and dried under vacuum. The extract was then taken up with 5 ml chloroform/methanol (2/1, v/v). Recovery of radioactive material in the extract was checked by taking 50pl of the chloroform/methanol and counting by liquid scintillation. Recovery was in the range 80-95% in most experiments.
The chloroform/methanol extract was then reduced in volume to 1 ml under dry prepurified nitrogen. Thin layer chromatography was carried out on […] precoated, prescored silica gel G Uniplates (Analtech). Plates were activated by heating to 100°C for 1 hour immediately prior to use. The solvent system was chloroform:methanol: acetic acid:water (90:8:1:0.8). Reference compounds (PG's El and Fla, and thromboxane Bl) were run at the same time and visualized by phosphomolybdic acid spray followed by brief heating. The bands on the plates corresponding to the reference PGE 1,PFG la and TXB 1 were scraped off and eluted with 20 ml acetone. Each elution was then evaporated to dryness and counted by liquid scintillation (Beckman 100 LS counter). […]

[2] = read-out: PGE 1 formed from precursor acid DGLA
[3] = read-out: PGE 2 formed from precursor acid AA

| SMILES | effect on responses to noradrenaline [1] | inhibitory action on noradrenaline responses with intact PG synthesis versus PG synthesis blocked [1] | other results |
| --- | --- | --- | --- |
| CCCCC/C=C\C/C=C\C/C=C\C/C=C\CCCC(=O)O [AA, arachidonic acid] | increase noradrenaline responses | – | – |
| CCCCC/C=C\C/C=C\C/C=C\CCCCCCC(=O)O [DGLA, dihomo-y-linolenic acid] | inhibit responses to noradrenaline | – | – |
| CCCCC[C@H](O)/C=C/[C@H]1[C@H](O)CC(=O)[C@@H]1CCCCCCC(=O)O [PGE 1] | inhibit responses to noradrenaline | – | – |
| CCN(CC)CCCC(C)Nc1ccnc2cc(Cl)ccc12 (centres unmarked) [chloroquine] | inhibits responses to noradrenaline | more potent when endogenous prostaglandin synthesis is intact | activity at 5 µg/mL (Platelets (human); [2]): 132%; activity at 5 µg/mL (Platelets (human); [3]): 98%; activity at 5 µg/mL (Platelets (human); read-out: TXB 1 formed from precursor acid DGLA): 128%; activity at 5 µg/mL (Platelets (human); read-out: TXB 2 formed from precursor acid AA): 97%; activity at 5 µg/mL (Kidney slices (rat); [2]): 129%; activity at 5 µg/mL (Kidney slices (rat); [3]): 101% |
| CCN(CC)CCOC(=O)c1ccc(N)cc1 [procaine] | – | share this effect of chloroquine | – |
| CCN(CC)CCCC(C)Nc1c2ccc(Cl)cc2nc2ccc(OC)cc12 (centres unmarked) [quinacrine] | – | share this effect of chloroquine | – |
| C=C[C@H]1C[N@@]2CC[C@H]1C[C@@H]2[C@@H](O)c1ccnc2ccc(OC)cc12 [quinidine] | – | share this effect of chloroquine | – |
| C=C[C@H]1C[N@@]2CC[C@H]1C[C@H]2[C@H](O)c1ccnc2ccc(OC)cc12 [quinine] | – | share this effect of chloroquine | – |
| CC(=O)S[C@@H]1CC2=CC(=O)CC[C@]2(C)[C@H]2CC[C@@]3(C)[C@@H](CC[C@@]34CCC(=O)O4)[C@H]12 [spironolactone] | – | – | activity at 5 µg/mL (Kidney slices (rat); [2]): 143%; activity at 5 µg/mL (Kidney slices (rat); [3]): 67% |
